Measurements: patent publication US9376424B2, “Methods for treating post traumatic stress disorder” (AZEVAN PHARMACEUTICALS, INC., priority 2010, dated 2016)

Experiments:
V1b receptor = biological target: T1, V1b receptor (Homo sapiens, UniProt P47901); test: Human or rat vasopressin V1b cell-based receptor binding assay; conditions: selectivity table; read-out: inhibition data (Ki, nM), Receptor V1b
T1 construct: expressed in transfected cells; host or cells: CHO-K1 (ATCC), vector PCI-neo
T1 sequence (P47901 1-424): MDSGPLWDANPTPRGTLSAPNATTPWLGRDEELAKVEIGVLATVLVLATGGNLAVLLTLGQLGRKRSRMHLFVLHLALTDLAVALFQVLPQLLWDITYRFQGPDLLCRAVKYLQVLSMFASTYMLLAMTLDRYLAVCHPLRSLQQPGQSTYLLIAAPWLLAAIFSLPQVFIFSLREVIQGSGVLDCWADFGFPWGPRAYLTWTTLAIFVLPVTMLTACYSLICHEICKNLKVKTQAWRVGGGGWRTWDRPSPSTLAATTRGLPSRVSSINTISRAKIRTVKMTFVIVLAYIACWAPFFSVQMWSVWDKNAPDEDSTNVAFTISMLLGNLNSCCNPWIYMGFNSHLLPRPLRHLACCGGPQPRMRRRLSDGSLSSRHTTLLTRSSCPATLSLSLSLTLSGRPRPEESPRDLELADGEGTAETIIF
From the text: Human vasopression V1b receptor-expressing cells. Human vasopressin receptor 1b (hV1b) cDNA (see, Lolait et al., “Extrapituitary expression of the rat V1b vasopressin receptor gene” Proc. Natl. Acad. Sci. USA. 92:6783-7 (1995); de Keyzer et al., “Cloning and characterization of the human V3(V1b) pituitary vasopressin receptor” FEBS Lett. 356:215-20 (1994); Sugimoto et al., “Molecular cloning and functional expression of a cDNA encoding the human V1b vasopressin receptor” J. Biol. Chem. 269:27088-92 (1994)) was inserted into a mammalian cell expression vector PCI-neo (Promega) at EcoR1 site. The recombinant plasmid carrying hV1b cDNA was identified from transformed E. Coli clones and used for the transfection of Chinese hamster ovary cell (CHO-K1, ATCC). Two micrograms of hV1b receptor DNA was introduced into 10^5 CHO cells cultured in 6-well plate, using Fugene-6 mediated transfection technique (Boehringer Mannheim). Twenty-four hrs post transfection, Cells were then cultured under selection of G-418 (0.25 mg/ml) supplemented to the culture medium. Three days later, limited dilution was carried out to obtain single cell clones in 96-well plates. […]
Human or rat vasopression V1b cell-based receptor binding assay. […] Samples were counted in a liquid scintillation counter (Beckman LS3801). IC50 and Ki values were calculated using Prism Curve fitting software. […]

V2 = V2 (Homo sapiens, UniProt P30518); test: V2 receptor inhibition data (Ki); type: binding; conditions: selectivity table
Sequence of V2 (P30518 whole entry): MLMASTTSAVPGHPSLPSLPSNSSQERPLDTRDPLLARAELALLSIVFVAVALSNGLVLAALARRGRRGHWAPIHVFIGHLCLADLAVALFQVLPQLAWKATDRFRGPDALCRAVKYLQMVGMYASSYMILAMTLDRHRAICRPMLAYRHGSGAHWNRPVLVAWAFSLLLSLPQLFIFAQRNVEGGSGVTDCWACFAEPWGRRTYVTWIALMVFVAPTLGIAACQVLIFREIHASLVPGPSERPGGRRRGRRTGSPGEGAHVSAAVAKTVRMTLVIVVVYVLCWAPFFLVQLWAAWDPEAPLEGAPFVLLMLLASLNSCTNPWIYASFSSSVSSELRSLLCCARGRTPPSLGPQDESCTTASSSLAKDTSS

resident male rats = test: Resident-Intruder Model of Stress and Aggression in Rats (neuroimaging); type: in vivo, rat; conditions: oral administration, intruder stimulus
From the text: Resident-Intruder Model of Stress and Aggression in Rats. Neuroimaging is used to assess the blockade of stress/arousal with test compound compared to control. The effect of AVN251-HCl on functional circuitry was examined using the imaging method for awake rats. Additional details of the assay are described in Ferris et al. (2008).
Male rats in the company of a female cage mate will piloerect in the presence of a male intruder. This piloerection is a sign of stress and aggressive intent and is associated with activation of stress/arousal circuits in the brain. […] Resident male rats from six male:female pairs were imaged while fully awake. During a single imaging session, these males were treated with vehicle or AVN251-HCl (5 mg/kg).
The total volume of brain activation for resident males confronted with their mate alone, mate plus intruder, and mate plus intruder in the presence of AVN251-HCl can be viewed as 3D models. While there appears to be a general decrease in BOLD signal in major regions with AVN251-HCl treatment, sexual motivation, as assessed by the presentation of a novel receptive female, was unaffected by V1a receptor blockade.
Stress circuit activation in response to an intruder male is assessed by obtaining brain scans viewed from a caudal/dorsal perspective as translucent shells. The localization of activated voxels is mapped as 3D volumes of activation, which are composed of 10 subjects each. Once fully registered and segmented, the statistical responses for each subject are averaged on a voxel-by-voxel basis. Those averaged voxels exceeding a 2.0% threshold are shown in their appropriate spatial location. Functional images are acquired on awake rats at 4.7 T.
The 3D volumes of activation are composed from results obtained with 10 subjects in each condition. […] Particular olfactory systems measured included the anterior olfactory nucleus, olfactory tubercle, piriform cortex, n. laterial olfactory tract, and entrorhinal cortex. Particular dopaminergic systems measured included the prelimbic cortex, accumbens, ventral pallidum, medial dorsal thalamus, and ventral tegmentum.
Awake rats were imaged when presented with their mate+an intruder, a highly stressful stimulus.

Ki (V1b receptor): > 1000 nM | Ki (V2): > 1000 nM
SMILES: C[C@@H](NC(=O)[C@@H](CC(=O)N1CCC(N2CCCCC2)CC1)N1C(=O)[C@@H](N2C(=O)OC[C@@H]2c2ccccc2)[C@H]1C=Cc1ccccc1)c1ccccc1 [Example 224, 2(R)-[[4-(Piperidinyl)piperidinyl]carbonylmethyl]-2-[3(S)-(4(S)-phenyloxazolidin-2-on-3-yl)-4(R)-(2-styryl)azetidin-2-on-1-yl]acetic acid N—[(R)-α-methylbenzyl]amide]
stress and aggressive motivation compared to controls (resident male rats): blocked stress and aggressive motivation
